Data reported in patent US20180072997A1, “INHIBITORS OF HUMAN IMMUNODEFICIENCY VIRUS REPLICATION” (ViiV HEATHCARE UK (NO.5) LIMITED, priority 2015, published 2018).
pEC50: −log10 of the molar value.

Tests used:
uninfected MT2 cells = experiment: Compound cytotoxicity, XTT-based colorimetric assay; type: cell-based; details: day 4, XTT
In short: (§1)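 Run under the antiviral-assay protocol but without virus. Viability was read on day 4 and CC50 values were derived from the readout.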

[1] = system: recombinant NL4-3 virus (Renilla luciferase in nef) in MT-2 cells; experiment: whole plant or invertebrate; type: cell-based, HIV; details: luciferase activity
In short: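 MT-2 cells infected for 4-5 days with NL4-3 reporter virus (Renilla luciferase replacing part of nef, produced by transfection of 293T cells) in the presence of serial compound dilutions. Antiviral activity quantified by luciferase activity read with a live-cell substrate.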

[2] = Compound cytotoxicity, XTT-based colorimetric assay; type: cell-based; details: human, uninfected MT2 cells, day 4, XTT
In short: as §1

[3] = MT-2 cells infected for 4-5 days with recombinant NL4-3 Renilla luciferase virus
[4] = Renilla, NL43, MT-2 cells infected for 4-5 days with recombinant NL4-3 Renilla luciferase virus

SMILES	CC50 (uninfected MT2 cells)	pEC50 [1, 3]	CC50 at 4 days [2]	pEC50 [1, 4]
COc1ccc(N(C)C(=O)[C@H](Cc2ccccc2)NC(=O)C(C)n2c(=O)n(C(C)C(=O)N[C@@H](Cc3ccccc3)C(=O)N(C)c3ccc(OC)cc3)c3ccccc32)cc1 (single isomer, unassigned) [Example 134]	10.8 µM	6.09		
COc1ccc(N(C)C(=O)[C@H](Cc2cc(F)cc(F)c2)NC(=O)C(C)n2c(=O)n(C(C)C(=O)N[C@@H](Cc3cc(F)cc(F)c3)C(=O)N(C)c3ccc(OC)cc3)c3ccccc32)cc1 (single isomer, unassigned) [Example 133]	13.9 µM	6.39		
COc1ccc(N(C)C(=O)[C@H](Cc2ccccc2)NC(=O)C=C(C)CC(=O)N[C@@H](Cc2ccccc2)C(=O)N(C)c2ccc(OC)cc2)cc1 (single isomer, unassigned) [Example 114]	27.1 µM	5.75		
CCc1ncc(N(C)C(=O)[C@H](Cc2cc(F)cc(F)c2)NC(=O)NS(=O)(=O)N[C@@H](Cc2cc(F)cc(F)c2)C(=O)N(C)c2cnc(CC)nc2)cn1 [Example 208]			37.7 µM	4.80
CN(C(=O)[C@H](Cc1cc(F)cc(F)c1)NC(=O)NS(=O)(=O)N[C@@H](Cc1cc(F)cc(F)c1)C(=O)N(C)c1ccc(C2CC2)nc1)c1ccc(C2CC2)nc1 [Example 181]			85.8 µM	7.70
COc1ccc(N(C)C(=O)[C@H](Cc2cc(F)cc(F)c2)NC(=O)NS(=O)(=O)N[C@@H](Cc2cc(F)cc(F)c2)C(=O)N(C)c2ccc(OC)c(F)c2)cc1F [Example 233]			35.8 µM	7.52
COc1ccc(N(C)C(=O)[C@H](Cc2ccccc2)NS(=O)(=O)CCCS(=O)(=O)N[C@@H](Cc2ccccc2)C(=O)N(C)c2ccc(OC)cc2)cc1 [Example 28]			30 µM	5.85
COc1ccc(N(C)C(=O)[C@H](Cc2ccccc2)NC(=O)c2cc(C(=O)N[C@@H](Cc3ccccc3)C(=O)N(C)c3ccc(OC)cc3)cc(C(C)(C)C)c2)cc1 [Example 103]			≥ 33.3 µM	6.82
COc1ccc(N(C)C(=O)[C@H](Cc2ccccc2)NC(=O)CC(C)(C)C(=O)N[C@@H](Cc2ccccc2)C(=O)N(C)c2ccc(OC)cc2)cc1 [Example 30]			31.2 µM	5.30
CCN(C(=O)[C@H](Cc1cc(F)cc(F)c1)NC(=O)CN1c2ccccc2N(CC(=O)N[C@@H](Cc2cc(F)cc(F)c2)C(=O)N(CC)c2ccc(NC(=O)OC)cc2)S1(=O)=O)c1ccc(NC(=O)OC)cc1 [Example 148]			≥ 100 µM	6.14
COc1ccc(N(C)C(=O)[C@H](Cc2ccccc2)NC(=O)Cn2c(=O)n(CC(=O)N[C@@H](Cc3ccccc3)C(=O)N(C)c3ccc(OC)cc3)c3cc([N+](=O)[O-])ccc32)cc1 [Example 87]			11.1 µM	7.05
CN(C(=O)[C@H](Cc1cc(F)cc(F)c1)NC(=O)CN1c2ccccc2N(CC(=O)N[C@@H](Cc2cc(F)cc(F)c2)C(=O)N(C)c2ccc3c(c2)ncn3C)S1(=O)=O)c1ccc2c(c1)ncn2C [Example 209]			≥ 100 µM	6.38
Cc1cc(N(C)C(=O)[C@H](Cc2ccccc2)NC(=O)NS(=O)(=O)N[C@@H](Cc2ccccc2)C(=O)N(C)c2ccc(C#N)c(C)c2)ccc1C#N [Example 228]			93.5 µM	5.56
COc1ccc(N(C)C(=O)[C@H](Cc2ccccc2)NC(=O)CCC(=O)N[C@@H](Cc2ccccc2)C(=O)N(C)c2ccc(OC)cc2)cc1 [Example 21]			27 µM	5.49
CN(C(=O)[C@H](Cc1cc(F)cc(F)c1)NC(=O)N[C@@H](Cc1cc(F)cc(F)c1)C(=O)N(C)c1ccc2scnc2c1)c1ccc2scnc2c1 [Example 221]			≥ 100 µM	6.28
Cc1ncc(N(C)C(=O)[C@H](Cc2cc(F)cc(F)c2)NC(=O)NS(=O)(=O)N[C@@H](Cc2cc(F)cc(F)c2)C(=O)N(C)c2cnc(C)c(Cl)c2)cc1Cl [Example 225]			2.3 µM	6.06
COc1ccc(N(C)C(=O)[C@H](Cc2ccccc2)NC(=O)Cn2c(=O)c(=O)n(CC(=O)N[C@@H](Cc3ccccc3)C(=O)N(C)c3ccc(OC)cc3)c3ccccc32)cc1 [Example 94]			23.2 µM	6.80
CN(C(=O)[C@H](Cc1cc(F)cc(F)c1)NC(=O)NS(=O)(=O)N[C@@H](Cc1cc(F)cc(F)c1)C(=O)N(C)c1ccc2nccnc2c1)c1ccc2nccnc2c1 [Example 203]			≥ 100 µM	4.52
CN(C(=O)[C@H](Cc1ccccc1)NC(=O)NS(=O)(=O)N[C@@H](Cc1ccccc1)C(=O)N(C)c1ccc2c(c1)OCO2)c1ccc2c(c1)OCO2 [Example 19]			99.5 µM	6.77
COc1ccc(N(C)C(=O)[C@H](Cc2ccccc2)NC(=O)/C=C/CC(=O)N[C@@H](Cc2ccccc2)C(=O)N(C)c2ccc(OC)cc2)cc1 [Example 117]			30.8 µM	6.19
COc1ccc(-n2ccnc2C(Cc2ccccc2)NC(=O)CN2c3ccccc3N(CC(=O)N[C@@H](Cc3ccccc3)c3nccn3-c3ccc(OC)cc3)S2(=O)=O)cc1 (stereo partly shown) [Example 166]			≥ 100 µM	5.17

SMILES	CC50 (uninfected MT2 cells)	pEC50 [1, 3]	CC50 at 4 days [2]	pEC50 [1, 4]
COc1ccc(N(C)C(=O)[C@H](Cc2cc(F)cc(F)c2)NC(=O)Cn2c(=O)c3ccccc3c(=O)n2CC(=O)N[C@@H](Cc2cc(F)cc(F)c2)C(=O)N(C)c2ccc(OC)cc2)cc1 [Example 93]			5.7 µM	7.05
COc1ccc(N(C)C(=O)[C@H](Cc2ccccc2)NC(=O)[C@H](C)NC(=O)N[C@@H](C)C(=O)N[C@@H](Cc2ccccc2)C(=O)N(C)c2ccc(OC)cc2)cc1 [Example 104]			31 µM	6.89
CCc1ncc(N(C)C(=O)[C@H](Cc2cc(F)cc(F)c2)NC(=O)c2ccc(F)c(C(=O)N[C@@H](Cc3cc(F)cc(F)c3)C(=O)N(C)c3cnc(CC)nc3)c2)cn1 [Example 206]			≥ 33.3 µM	4.84
COc1ccc(N(C)C(=O)[C@H](Cc2ccccc2)NC(=O)Cn2c(=O)n(CC(=O)N[C@@H](Cc3ccccc3)C(=O)N(C)c3ccc(OC)cc3)c3cc(Cl)ccc32)cc1 [Example 71]			6.5 µM	7.10
C=CCN(C(=O)[C@H](Cc1cc(F)cc(F)c1)NS(=O)(=O)c1cccc(S(=O)(=O)N[C@@H](Cc2cc(F)cc(F)c2)C(=O)N(CC=C)c2ccc(OC)cc2)c1)c1ccc(OC)cc1 [Example 187]			≥ 100 µM	5.42
COc1ccc(N(C)C(=O)[C@H](Cc2cc(F)cc(F)c2)Nc2ccnc(N[C@@H](Cc3cc(F)cc(F)c3)C(=O)N(C)c3ccc(OC)cc3)n2)cc1 [Example 158]			12.4 µM	5.02
COc1ccc(N(C)C(=O)[C@H](Cc2ccccc2)NC(=O)NC(=O)N[C@@H](Cc2ccccc2)C(=O)N(C)c2ccc(OC)cc2)cc1 [Example 10]			10.5 µM	5.33
CCc1ccc(N(C)C(=O)[C@H](Cc2cc(F)cc(F)c2)NC(=O)NS(=O)(=O)N[C@@H](Cc2cc(F)cc(F)c2)C(=O)N(C)c2ccc(CC)nc2)cn1 [Example 180]			80.1 µM	7.52
COc1ccc(N(C)C(=O)[C@H](Cc2ccccc2)NC(=O)CNC(=O)NCC(=O)N[C@@H](Cc2ccccc2)C(=O)N(C)c2ccc(OC)cc2)cc1 [Example 68]			69.3 µM	5.85
COc1ccc(N(C)C(=O)[C@H](Cc2cc(F)cc(F)c2)NC(=O)NS(=O)(=O)N[C@@H](Cc2cc(F)cc(F)c2)C(=O)N(C)c2ccc(OC)nc2)cn1 [Example 176]			≥ 100 µM	7.40
O=C(N[C@@H](Cc1cc(F)cc(F)c1)c1ncccc1Br)NS(=O)(=O)N[C@@H](Cc1cc(F)cc(F)c1)c1ncccc1Br [Example 36]			65.3 µM	5.14
COc1ccc(N(C)C(=O)[C@H](Cc2cc(F)cc(F)c2)NC(=O)Cc2cccc(CC(=O)N[C@@H](Cc3cc(F)cc(F)c3)C(=O)N(C)c3ccc(OC)cc3)c2)cc1 [Example 43]			3.7 µM	6.32
Cc1ccc(N(C)C(=O)[C@H](Cc2cc(F)cc(F)c2)NC(=O)CN2c3ccccc3N(CC(=O)N[C@@H](Cc3cc(F)cc(F)c3)C(=O)N(C)c3ccc(C)nc3)S2(=O)=O)cn1 [Example 195]			54 µM	7.70
C=CCN(C(=O)[C@H](Cc1cc(F)cc(F)c1)NS(=O)(=O)CS(=O)(=O)N[C@@H](Cc1cc(F)cc(F)c1)C(=O)N(CC=C)c1ccc(OC)cc1)c1ccc(OC)cc1 [Example 163]			≥ 100 µM	5.59
COc1ccc(N(C)C(=O)[C@H](Cc2ccccc2)NC(=O)c2nc[nH]c2C(=O)N[C@@H](Cc2ccccc2)C(=O)N(C)c2ccc(OC)cc2)cc1 [Example 59]			11 µM	5.48
CN(C(=O)[C@H](Cc1cc(F)cc(F)c1)NC(=O)c1cccc(C(=O)N[C@@H](Cc2cc(F)cc(F)c2)C(=O)N(C)c2ccc3scnc3c2)c1Cl)c1ccc2scnc2c1 [Example 82]			≥ 100 µM	7.15
CCCN(C(=O)[C@H](Cc1cc(F)cc(F)c1)NC(=O)NS(=O)(=O)N[C@@H](Cc1cc(F)cc(F)c1)C(=O)N(CCC)c1ccc2nccnc2c1)c1ccc2nccnc2c1 [Example 204]			≥ 33.3 µM	4.82
CN(C(=O)[C@H](Cc1cc(F)cc(F)c1)NS(=O)(=O)CS(=O)(=O)N[C@@H](Cc1cc(F)cc(F)c1)C(=O)N(C)c1ccc2scnc2c1)c1ccc2scnc2c1 [Example 202]			≥ 100 µM	7.10
COc1ccc(N(C)C(=O)[C@H](Cc2cc(F)cc(F)c2)NC(=O)c2ccc(F)c(C(=O)N[C@@H](Cc3cc(F)cc(F)c3)C(=O)N(C)c3ccc(OC)c(F)c3)c2)cc1F [Example 232]			≥ 33.3 µM	6.74
COc1ccc(N(C)C(=O)[C@H](Cc2ccccc2)NC(=O)NS(=O)(=O)N[C@@H](Cc2ccccc2)C(=O)N(C)c2cc(OC)c(OC)c(OC)c2)cc1 [Example 17]			15.9 µM	4.91
